From BindingDB's records for patent US20250313563 (The Broad Institute, 2025) come the findings set out here.

“And” between values parts separate entries of the source, which are not always exact repeats. Equal values may be shown once.

Test [1] concerns the target Glycogen synthase kinase-3 alpha (Homo sapiens, UniProt P49840). As to the kind of experiment: TR-FRET Assay. The gist of the method: (§1)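 30 min preinc w/ cpd in assay buffer → kinase rxn → EDTA quench → add detection mix (40 nM SA-d2, 2 nM Tb-pSer641 Ab) → TR-FRET read.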
For orientation: TR-FRET usually uses a lanthanide donor and a delayed reading to cut background.

For test [2], the target named is Glycogen synthase kinase-3 beta (Homo sapiens, UniProt P49841). The test can be described thus: TR-FRET Assay. In short, it runs like this:
as §1

Glycogen synthase kinase-3 alpha, sequence (P49840 whole entry): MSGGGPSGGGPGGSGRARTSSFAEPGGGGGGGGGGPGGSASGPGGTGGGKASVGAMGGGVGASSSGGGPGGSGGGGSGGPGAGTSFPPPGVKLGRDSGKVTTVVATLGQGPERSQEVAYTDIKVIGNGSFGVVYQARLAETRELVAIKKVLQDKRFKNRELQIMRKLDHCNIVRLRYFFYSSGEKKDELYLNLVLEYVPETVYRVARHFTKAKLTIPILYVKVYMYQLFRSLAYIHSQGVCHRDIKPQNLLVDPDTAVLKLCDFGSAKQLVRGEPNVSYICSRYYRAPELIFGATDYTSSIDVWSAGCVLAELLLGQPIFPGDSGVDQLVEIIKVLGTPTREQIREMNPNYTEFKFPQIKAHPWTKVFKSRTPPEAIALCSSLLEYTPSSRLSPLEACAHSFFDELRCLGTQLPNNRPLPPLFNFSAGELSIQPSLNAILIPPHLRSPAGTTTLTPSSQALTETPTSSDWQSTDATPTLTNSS
Glycogen synthase kinase-3 beta, sequence (P49841 whole entry): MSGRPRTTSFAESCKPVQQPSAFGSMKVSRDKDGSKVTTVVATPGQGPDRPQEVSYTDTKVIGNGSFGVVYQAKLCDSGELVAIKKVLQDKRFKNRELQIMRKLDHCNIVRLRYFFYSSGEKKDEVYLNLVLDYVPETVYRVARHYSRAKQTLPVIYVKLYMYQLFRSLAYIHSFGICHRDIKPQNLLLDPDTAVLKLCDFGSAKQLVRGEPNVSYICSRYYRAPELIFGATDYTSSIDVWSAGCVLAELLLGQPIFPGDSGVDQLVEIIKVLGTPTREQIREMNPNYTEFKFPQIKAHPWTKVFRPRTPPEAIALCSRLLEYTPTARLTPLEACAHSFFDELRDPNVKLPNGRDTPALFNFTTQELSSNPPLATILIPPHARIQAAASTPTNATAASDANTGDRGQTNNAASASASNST

By IC50 is commonly meant the midpoint of a concentration-inhibition curve. Low values mean greater potency in that assay, high ones weaker potency in that assay. Regarding `CC[C@]1(c2cccc(-c3ccnc(C)c3)c2)C2=CN=NC2NC2=C1C(=O)N[C@H](C)C2` (stereo partly drawn) [US20250313563, Compound 926212], the half-inhibitory concentration (IC50) in test [1] is < 100 nM; in test [2], 1000 to 5000 nM.

On to `CC[C@]1(c2cccc(-c3ccnc(C)c3)c2)C2=CN=NC2NC2=C1C(=O)N[C@@H](C)C2` (stereo partly drawn) [US20250313563, Compound 926299], for which the half-maximal inhibitory concentration (IC50) in test [1] was 1000 to 5000 nM; in test [2] it was > 5000 nM.

Regarding `CC[C@@]1(c2cccc(-c3ccnc(C)c3)c2)C2=CN=NC2NC2=C1C(=O)N[C@H](C)C2` (stereo partly drawn) [US20250313563, Compound 926300], the concentration for half-maximal inhibition (IC50) was < 100 nM and 100 to 1000 nM in test [1]; 100 to 1000 nM and > 5000 nM in test [2].

As to `CC[C@@]1(c2cccc(-c3ccnc(C)c3)c2)C2=CN=NC2NC2=C1C(=O)N[C@@H](C)C2` (stereo partly drawn) [US20250313563, Compound 926302], the figures for the IC50 in test [1] and in test [2] were 1000 to 5000 nM and > 5000 nM, respectively.

On to `CCC1(c2cccc(N(C)c3nc(C)cc(C)n3)c2)C2=CN=NC2NC2=C1C(=O)CC(C)(C)C2` (stereo not drawn) [US20250313563, Compound 926304], for which the concentration for half-maximal inhibition (IC50) is 100 to 1000 nM in test [1] and 1000 to 5000 nM in test [2].

`C[C@H]1C[C@]2(CCN1S(=O)(=O)c1ccn(C)n1)C1=C(N=NC1)NC1=C2C(=O)CC(C)(C)C1` [US20250313563, Compound 926815]: the concentration for half-maximal inhibition (IC50) in test [1] and in test [2] was < 100 nM each time.

Turning to `CC1(C)CC(=O)C2=C(C1)NC1=C(CN=N1)[C@]21COC2(CN(S(C)(=O)=O)C2)C1` [US20250313563, Compound 926823], the half-maximal inhibitory concentration (IC50) in test [1] is 100 to 1000 nM; in test [2], 1000 to 5000 nM.

`C[C@H]1C[C@@]2(CCN1S(C)(=O)=O)C1=CN=NC1NC1=C2C(=O)CC(C)(C)C1` (stereo partly drawn) [US20250313563, Compound 926827]: the IC50 in test [1] and in test [2] was < 100 nM each time.

For `C[C@H]1C[C@@]2(CCN1S(=O)(=O)c1ccn(C)n1)C1=C(N=NC1)NC1=C2C(=O)CC(C)(C)C1` [US20250313563, Compound 926832], the IC50 is < 100 nM in test [1] and 100 to 1000 nM in test [2].

Regarding `CCC1(c2cccc(-c3cnn4c3CCCC4)c2)C2=CN=NC2NC2=C1C(=O)CC(C)(C)C2` (stereo not drawn) [US20250313563, Compound 926836], the IC50 was < 100 nM in test [1] and 100 to 1000 nM in test [2].

`CCC1(c2cccc(-c3cn(C)nc3C)c2)C2=CN=NC2NC2=C1C(=O)CC(C)(C)C2` (stereo not drawn) [US20250313563, Compound 926840]: the IC50 in test [1] and in test [2] was < 100 nM throughout.

Regarding `CCC1(c2cccc(-c3cnnc(C)c3)c2)C2=CN=NC2NC2=C1C(=O)CC(C)(C)C2` (stereo not drawn) [US20250313563, Compound 926844], the IC50 was < 100 nM in test [1] and 100 to 1000 nM in test [2].

On to `CC(=O)N1CC2(C1)C[C@@]1(CO2)C2=C(N=NC2)NC2=C1C(=O)CC(C)(C)C2` [US20250313563, Compound 926861], for which the 50% inhibitory concentration (IC50) in test [1] and in test [2] was < 100 nM throughout.

Consider `CC(=O)N1CC2(C1)C[C@]1(CO2)C2=C(N=NC2)NC2=C1C(=O)CC(C)(C)C2` [US20250313563, Compound 926872], for which the IC50 in test [1] and in test [2] was 100 to 1000 nM throughout.

On to `CC[C@]1(c2cccc(-c3ccnc(C)c3)c2)C2=CN=NC2NC2=C1C(=O)NC(C)(C)C2` (stereo partly drawn) [US20250313563, Compound 927325], for which the half-maximal inhibitory concentration (IC50) in test [1] and in test [2] was 100 to 1000 nM each time.

As to `CC[C@@]1(c2cccc(-c3ccnc(C)c3)c2)C2=CN=NC2NC2=C1C(=O)NC(C)(C)C2` (stereo partly drawn) [US20250313563, Compound 927326], the results for the IC50 in test [1] and in test [2] were 100 to 1000 nM and > 5000 nM, respectively.

`CC[C@@]1(c2cccc(N(C)c3cccc(C(F)(F)F)n3)c2)C2=CN=NC2NC2=C1C(=O)CC(C)(C)C2` (stereo partly drawn) [US20250313563, Compound 927338]: the figures for the IC50 in test [1] and in test [2] were < 100 nM and 100 to 1000 nM, respectively.

`CC[C@@]1(c2cccc(-c3ccnc(C)c3F)c2)C2=C(CC(C)(C)CC2=O)NC2N=NC(C)=C21` (stereo partly drawn) [US20250313563, Compound 927340]: the concentration for half-maximal inhibition (IC50) in test [1] and in test [2] was > 5000 nM throughout.

Take `CC[C@]1(c2cccc(NS(C)(=O)=O)c2)C2=CN=NC2NC2=C1C(=O)CC(C)(C)C2` (stereo partly drawn) [US20250313563, Compound 927341]: the IC50 in test [1] and in test [2] was 1000 to 5000 nM throughout.

In the case of `CCC1(c2cccc(-c3ccnnc3)c2)C2=CN=NC2NC2=C1C(=O)CC(C)(C)C2` (stereo not drawn) [US20250313563, Compound 927342], the IC50 in test [1] and in test [2] was < 100 nM in each case.

Take `CC1(C)CC(=O)C2=C(C1)NC1N=NC=C1C21CCCS(=O)(=O)CC1` (stereo not drawn) [US20250313563, Compound 927343]: the concentration for half-maximal inhibition (IC50) in test [1] is < 100 nM; in test [2] it was 100 to 1000 nM.

For the compound `CCC1(c2cccc(S(=O)(=O)C3CCOCC3)c2)C2=CN=NC2NC2=C1C(=O)CC(C)(C)C2` (stereo not drawn) [US20250313563, Compound 927344], the IC50 in test [1] and in test [2] was < 100 nM each time.

For `CC[C@]1(c2cccc(N(C)c3cccc(C(C)(F)F)c3)c2)C2=CN=NC2NC2=C1C(=O)CC(C)(C)C2` (stereo partly drawn) [US20250313563, Compound 927345], the IC50 in test [1] and in test [2] was > 5000 nM throughout.

In the case of `CC[C@@]1(c2cccc(-c3ccnc(C)c3F)c2)C2=CN=NC2NC2=C1C(=O)CC(C)(C)C2` (stereo partly drawn) [US20250313563, Compound 927347], the 50% inhibitory concentration (IC50) was < 100 nM and 100 to 1000 nM in test [1]; < 100 nM and 1000 to 5000 nM in test [2].

As for `CC[C@@]1(c2cccc(NS(C)(=O)=O)c2)C2=CN=NC2NC2=C1C(=O)CC(C)(C)C2` (stereo partly drawn) [US20250313563, Compound 927348], the IC50 in test [1] and in test [2] was < 100 nM throughout.

As for `CC[C@]1(c2cccc(-c3ccnn3C)c2)C2=CN=NC2NC2=C1C(=O)NC(C)(C)C2` (stereo partly drawn) [US20250313563, Compound 927389], the half-inhibitory concentration (IC50) is < 100 nM and 100 to 1000 nM in test [1]; < 100 nM and 1000 to 5000 nM in test [2].

With `CC[C@@]1(c2cccc(-c3ccnn3C)c2)C2=CN=NC2NC2=C1C(=O)NC(C)(C)C2` (stereo partly drawn) [US20250313563, Compound 927390], the IC50 in test [1] was 100 to 1000 nM; in test [2], > 5000 nM.

Take `CCC1(c2cccc(N(C)c3nccc(OC)n3)c2)C2=CN=NC2NC2=C1C(=O)CC(C)(C)C2` (stereo not drawn) [US20250313563, Compound 929387]: the IC50 in test [1] and in test [2] was < 100 nM in each case.

`CC[C@]1(c2cccc(C(F)(F)F)c2)C2=C(N=NC2)NC2=C1C(=O)N(Cc1ccccc1)C2` [US20250313563, Compound 929388]: the half-inhibitory concentration (IC50) is < 100 nM and 100 to 1000 nM in test [1]; 100 to 1000 nM in test [2].

In the case of `CC[C@@]1(c2cccc(C(F)(F)F)c2)C2=C(N=NC2)NC2=C1C(=O)N(Cc1ccccc1)C2` [US20250313563, Compound 929389], the IC50 in test [1] is 1000 to 5000 nM; in test [2], > 5000 nM.

For the compound `CCn1nccc1-c1cccc(C2(CC)C3=CN=NC3NC3=C2C(=O)CC(C)(C)C3)c1` (stereo not drawn) [US20250313563, Compound 929398], the concentration for half-maximal inhibition (IC50) in test [1] and in test [2] was < 100 nM throughout.

On to `CCC1(c2cccc(-c3ccnn3C(C)C)c2)C2=CN=NC2NC2=C1C(=O)CC(C)(C)C2` (stereo not drawn) [US20250313563, Compound 929399], for which the IC50 in test [1] and in test [2] was < 100 nM throughout.

Take `CCCn1nccc1-c1cccc(C2(CC)C3=CN=NC3NC3=C2C(=O)CC(C)(C)C3)c1` (stereo not drawn) [US20250313563, Compound 929400]: the IC50 in test [1] and in test [2] was < 100 nM in each case.

Take `CCC1(c2cccc(-c3ccnn3CCC(C)C)c2)C2=CN=NC2NC2=C1C(=O)CC(C)(C)C2` (stereo not drawn) [US20250313563, Compound 929401]: the half-inhibitory concentration (IC50) in test [1] and in test [2] was < 100 nM in each case.
